Data taken from paper PMC5368910 (BMC Pharmacology & Toxicology, 2017).
Like-named read-outs stand apart in the source and are kept apart here.

Key:
[1] = system: initial and relapsing hamster CDAD; parameters: method as in PMID 22802252; conditions: given orally; potency similar to vancomycin; cited from earlier work
[2] = MAD, 500 mg BID oral, plasma, LC/MS/MS, LLOQ 1 ng/mL, median (range)
Procedure: (§1) Subjects were dosed BID, once in the morning and once in the evening, for 14 consecutive days, with at least 8 ounces of water and approximately 1 h after breakfast and 1 h after dinner.
(§2) During the MAD study, serial plasma samples for PK analysis were collected predose and at 30 min, 3, 6, and 9 h after the morning dose on days 1 and 14, and before the morning dose on days 4, 7, 10, and 12 (trough levels). […] Samples were analyzed using the same bioanalytical LC/MS/MS method as in the SAD study (LLOQ of 1 ng/mL).
(§3) Plasma PK parameters were calculated using standard noncompartmental methods in a validated version of WinNonlin (version 5.2, Pharsight, Mountain View, CA, USA). All concentrations that were below the LLOQ prior to the first detectable concentration were assigned a value of 0. All concentrations that were below the LLOQ after the first quantifiable concentration were designated as missing and replaced with a period. Actual sample collection times were used in the analysis of the concentration versus time profiles for individual subjects. Integration of plasma concentrations versus time was conducted using the linear-up, log-down function in WinNonlin. The following parameters were determined: maximum plasma concentration (Cmax), time of Cmax (Tmax), area under the concentration-time curve (AUC) from 0 to last measurable plasma concentration (AUC0-t), AUC from 0 to infinity (AUC0-∞), percent of dose excreted in the urine, and terminal exponential half-life (t½).

[3] = SAD, single oral dose, urine over a 7-day period, LC/MS/MS
Procedure: Any subject receiving at least one full dose of the study drug was included in the PK analysis population. PK analysis during the SAD study was conducted on serial plasma samples collected predose and at 30 min, 1, 2, 4, 6, 8, 12, 24, 48, and 72 h after dosing, and analyzed using a validated liquid chromatography-tandem mass spectrometry (LC/MS/MS) method, with a lower limit of quantification (LLOQ) of 1 ng/mL. Urine and stool samples were also collected during this period and analyzed using LC/MS/MS. Urine and feces were collected for 7 days after dose administration. The samples were analyzed using an API 5000 triple quadrupole mass spectrometer (Applied Biosystems/ScieEx, Concord, ON, Canada) using electrospray ionization in positive ion mode. […]
Plasma PK parameters were calculated using standard noncompartmental methods in a validated version of WinNonlin (version 5.2, Pharsight, Mountain View, CA, USA). […] All concentrations that were below the LLOQ after the first quantifiable concentration were designated as missing and replaced with a period. […] The following parameters were determined: maximum plasma concentration (Cmax), time of Cmax (Tmax), area under the concentration-time curve (AUC) from 0 to last measurable plasma concentration (AUC0-t), AUC from 0 to infinity (AUC0-∞), percent of dose excreted in the urine, and terminal exponential half-life (t½).

C. difficile = system: C. difficile; parameters: method as in PMID 22183166, PMID 22391542; conditions: cited from earlier work
[4] = not given; remark: listed apart in the source
[5] = after the first single oral dose, both SAD and MAD groups
Procedure: (§4) Randomization was assigned by blinded study personnel and stratified by gender to achieve an equal number of male and female subjects in each cohort. Subjects aged 18–49 years and 50–75 years were equally distributed in each dosing cohort.
(§5) Any subject receiving at least one full dose of the study drug was included in the PK analysis population. PK analysis during the SAD study was conducted on serial plasma samples collected predose and at 30 min, 1, 2, 4, 6, 8, 12, 24, 48, and 72 h after dosing, and analyzed using a validated liquid chromatography-tandem mass spectrometry (LC/MS/MS) method, with a lower limit of quantification (LLOQ) of 1 ng/mL. […] The samples were analyzed using an API 5000 triple quadrupole mass spectrometer (Applied Biosystems/ScieEx, Concord, ON, Canada) using electrospray ionization in positive ion mode. Analyst^TM software (version 1.4.2., Applied Biosystems, Foster City, CA, USA) was used for data acquisition. In total, 8 calibration solutions with a range of 1.00 ng/mL to 1000 ng/mL were used as internal standards in addition to a blank. Inter-assay bias was determined to be –2.6 to 2.5% with inter-assay precision of 3.9 to 9.4%.
as §3

clinical [6] = conditions: both, human, plasma, po
Procedure: as §4, §5, §3

[7] = dogs; ref Yin N et al., ICAAC 2010, unpublished data; cited from earlier work
clinical [8] = conditions: both, human, plasma, po, MAD, median (range); for AUC(0-t): AUC0–t; for Tmax: LLOQ 1 ng/mL
Procedure: as §1, §2, §3

[9] = rats; ref Yin N et al., ICAAC 2010, unpublished data; cited from earlier work
[10] = MAD, subjects who received surotomycin (n = 24)
[11] = SAD, of the 32 subjects who received surotomycin
[12] = 250 mg, 250 mg BID oral, day 1, LC/MS/MS, cohort n = 8
[13] = 1000 mg, 1000 mg BID oral, day 1, LC/MS/MS, cohort n = 8
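Wherever Back pain (TEAE) is given: human subjects dosed twice daily for 14 days, safety tracked through day 21 follow-up via reported adverse events, examinations, vital signs, ECG and laboratory tests.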
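Wherever Diarrhea (TEAE) is given: single ascending dose cohorts, safety followed through day 8 via observed or reported adverse events, physical exam, vital signs, ECG and laboratory tests, all dosed subjects analysed.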
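Wherever General disorders and administration- site conditions (TEAE) is given: human subjects dosed twice daily for 14 days, safety tracked through day 21 follow-up via reported adverse events, examinations, vital signs, ECG and laboratory tests.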
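Wherever Headache (TEAE) is given: human subjects dosed twice daily for 14 days, safety tracked through day 21 follow-up via reported adverse events, examinations, vital signs, ECG and laboratory tests.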
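Wherever Investigations (TEAE) is given: single ascending dose cohorts, safety followed through day 8 via observed or reported adverse events, physical exam, vital signs, ECG and laboratory tests, all dosed subjects analysed.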
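Wherever Musculoskeletal and connective tissue disorders (TEAE) is given: human subjects dosed twice daily for 14 days, safety tracked through day 21 follow-up via reported adverse events, examinations, vital signs, ECG and laboratory tests.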
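Wherever Transaminase increased (TEAE) is given: single ascending dose cohorts, safety followed through day 8 via observed or reported adverse events, physical exam, vital signs, ECG and laboratory tests, all dosed subjects analysed.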
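Wherever serious AEs is given: single ascending dose cohorts, safety followed through day 8 via observed or reported adverse events, physical exam, vital signs, ECG and laboratory tests, all dosed subjects analysed.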

## CCCCCc1ccc(/C(C)=C/C(=O)N[C@@H](Cc2c[nH]c3ccccc23)C(=O)N[C@H](CC(N)=O)C(=O)N[C@@H](CC(=O)O)C(=O)N[C@@H]2C(=O)NCC(=O)N[C@@H](CCCN)C(=O)N[C@@H](CC(=O)O)C(=O)N[C@H](C)C(=O)N[C@@H](CC(=O)O)C(=O)NCC(=O)N[C@H](CO)C(=O)N[C@@H]([C@H](C)CC(=O)O)C(=O)N[C@@H](CC(=O)c3ccccc3N)C(=O)O[C@@H]2C)cc1 [surotomycin]
[1]
  efficacy against initial and relapsing hamster CDAD: highly effective
[2]; day 1, cohort n = 8
  Tmax: 6.0 (6.0–9.0) h
[2]; day 14 morning dose
  Tmax: 6.0 (0.0–9.0) h
[3]
  median cumulative amount of the administered dose recovered in the urine: < 0.01%
C. difficile; against C. difficile, by MIC90
  in vitro potency relative to vancomycin: fourfold greater
C. difficile; in vitro, C. difficile isolates
  minimum inhibitory concentration at which 90% of the isolates were inhibited [MIC90]: 0.5 µg/mL
MAD 250 mg BID (n = 8)
  At least one TEAE: 4 (50.0) n (%)
  Back pain (TEAE): 1 (12.5) n (%)
  Gastrointestinal disorders (TEAE): 2 (25.0) n (%)
  General disorders and administration- site conditions (TEAE): 0 n (%)
  Headache (TEAE): 1 (12.5) n (%)
  Infections and infestations (TEAE): 0 n (%)
  Musculoskeletal and connective tissue disorders (TEAE): 2 (25.0) n (%)
  Nervous system disorders (TEAE): 2 (25.0) n (%)
  Oropharyngeal pain (TEAE): 0 n (%)
  Pruritus (TEAE): 0 n (%)
  Respiratory, thoracic, and mediastinal disorders (TEAE): 0 n (%)
  Skin and subcutaneous tissue disorders (TEAE): 0 n (%)
MAD 500 mg BID (n = 8)
  At least one TEAE: 6 (75.0) n (%)
  Back pain (TEAE): 1 (12.5) n (%)
  Gastrointestinal disorders (TEAE): 0 n (%)
  General disorders and administration- site conditions (TEAE): 0 n (%)
  Headache (TEAE): 1 (12.5) n (%)
  Infections and infestations (TEAE): 1 (12.5) n (%)
  Musculoskeletal and connective tissue disorders (TEAE): 2 (25.0) n (%)
  Nervous system disorders (TEAE): 1 (12.5) n (%)
  Oropharyngeal pain (TEAE): 1 (12.5) n (%)
  Pruritus (TEAE): 1 (12.5) n (%)
  Respiratory, thoracic, and mediastinal disorders (TEAE): 2 (25.0) n (%)
  Skin and subcutaneous tissue disorders (TEAE): 1 (12.5) n (%)
MAD 1000 mg BID (n = 8)
  At least one TEAE: 5 (62.5) n (%)
  Back pain (TEAE): 0 n (%)
  Gastrointestinal disorders (TEAE): 2 (25.0) n (%)
  General disorders and administration- site conditions (TEAE): 2 (25.0) n (%)
  Headache (TEAE): 0 n (%)
  Infections and infestations (TEAE): 1 (12.5) n (%)
  Musculoskeletal and connective tissue disorders (TEAE): 0 n (%)
  Nervous system disorders (TEAE): 2 (25.0) n (%)
  Oropharyngeal pain (TEAE): 1 (12.5) n (%)
  Pruritus (TEAE): 1 (12.5) n (%)
  Respiratory, thoracic, and mediastinal disorders (TEAE): 2 (25.0) n (%)
  Skin and subcutaneous tissue disorders (TEAE): 1 (12.5) n (%)
MAD, 500 mg BID, transient moderate anxiety and mild dyspnea 2 h after the 5th dose
  discontinuation due to AEs: One subject
MAD, 250, 500, 1000 mg BID
  tolerability: well tolerated
MAD, 250, 500, 1000 mg BID for 14 days
  severity of reported AEs: mild to moderate
MAD, all reported AEs
  relation of reported AEs to study drug: unrelated to the study drug
MAD, of the 24 subjects who received surotomycin
  headache: 2 (8.3%) n (%)
[10]
  back pain: 2 (8.3%) n (%)
  constipation: 2 (8.3%) n (%)
  oropharyngeal pain: 2 (8.3%) n (%)
  pruritus: 2 (8.3%) n (%)
[4]; SAD 500 mg (n = 8)
  At least one TEAE: 3 (37.5) n (%)
  Diarrhea (TEAE): 1 (12.5) n (%)
  Gastrointestinal disorders (TEAE): 2 (25.0) n (%)
  Infections and infestations (TEAE): 0 n (%)
  Investigations (TEAE): 0 n (%)
  Transaminase increased (TEAE): 0 n (%)
[4]; SAD 1000 mg (n = 8)
  At least one TEAE: 0 n (%)
  Diarrhea (TEAE): 0 n (%)
  Gastrointestinal disorders (TEAE): 0 n (%)
  Infections and infestations (TEAE): 0 n (%)
  Investigations (TEAE): 0 n (%)
  Transaminase increased (TEAE): 0 n (%)
[4]; SAD 2000 mg (n = 8)
  At least one TEAE: 5 (62.5) n (%)
  Diarrhea (TEAE): 3 (37.5) n (%)
  Gastrointestinal disorders (TEAE): 3 (37.5) n (%)
  Infections and infestations (TEAE): 0 n (%)
  Investigations (TEAE): 1 (12.5) n (%)
  Transaminase increased (TEAE): 1 (12.5) n (%)
[4]; SAD 4000 mg (n = 8)
  At least one TEAE: 3 (37.5) n (%)
  Diarrhea (TEAE): 1 (12.5) n (%)
  Gastrointestinal disorders (TEAE): 1 (12.5) n (%)
  Infections and infestations (TEAE): 2 (25.0) n (%)
  Investigations (TEAE): 1 (12.5) n (%)
  Transaminase increased (TEAE): 1 (12.5) n (%)
[4]; SAD group, none discontinued due to AEs
  serious AEs: No serious AEs
[4]; SAD, all surotomycin subjects (n = 32)
  treatment-related diarrhea: 5 (15.6%) n (%)
[4]; [11]
  increased transaminases: 2 (6.3%) n (%)
  subjects with AEs assessed as treatment-related: 9 (28.1%) n (%)
[4]; SAD, single oral doses 500, 1000, 2000 or 4000 mg
  tolerability: well tolerated
[4]; SAD, single oral doses 500-4000 mg
  severity of reported AEs: mild to moderate
[5]
  time of peak median plasma concentration after the first dose: 6 to 12 h
Clinical [6]; 500 mg
  AUC(0-inf): 317 ng·h/mL
  AUC(0-t): 260 ng·h/mL
  Cmax: 10.5 ng/mL
  Tmax: 6 h
  half-life: 18.3 h
Clinical [6]; 1000 mg
  AUC(0-inf): 702 ng·h/mL
  AUC(0-t): 664 ng·h/mL
  Cmax: 21.5 ng/mL
  Tmax: 10 h
  half-life: 21.1 h
Clinical [6]; 2000 mg
  AUC(0-inf): 2080 ng·h/mL
  AUC(0-t): 1860 ng·h/mL
  Cmax: 66.6 ng/mL
  Tmax: 8 h
  half-life: 16.3 h
Clinical [6]; 4000 mg
  AUC(0-inf): 2570 ng·h/mL
  AUC(0-t): 2480 ng·h/mL
  Cmax: 86.7 ng/mL
  Tmax: 12 h
  half-life: 14.8 h
[7]
  intestinal absorption: < 1%
Clinical [8]; 250 mg, 250 mg BID oral, day 1, 0 to last measurable concentration, cohort n = 8
  AUC(0-t): 41.2 ng·h/mL
Clinical [8]; 250 mg, 250 mg BID oral, day 14, 0 to last measurable concentration
  AUC(0-t): 274 ng·h/mL
Clinical [8]; [12]
  Cmax: 6.8 ng/mL
  Tmax: 9 h
Clinical [8]; 250 mg, 250 mg BID oral, day 14, LC/MS/MS
  Cmax: 25.5 ng/mL
Clinical [8]; 250 mg, 250 mg BID oral, day 14 morning dose, LC/MS/MS
  Tmax: 4.5 h
Clinical [8]; 500 mg, 500 mg BID oral, day 1, 0 to last measurable concentration, cohort n = 8
  AUC(0-t): 49.4 ng·h/mL
Clinical [8]; 500 mg, 500 mg BID oral, day 14, 0 to last measurable concentration
  AUC(0-t): 313 ng·h/mL
Clinical [8]; 500 mg, 500 mg BID oral, day 1, LC/MS/MS, cohort n = 8
  Cmax: 11 ng/mL
Clinical [8]; 500 mg, 500 mg BID oral, day 14, LC/MS/MS
  Cmax: 37.6 ng/mL
Clinical [8]; 1000 mg, 1000 mg BID oral, day 1, 0 to last measurable concentration, cohort n = 8
  AUC(0-t): 118 ng·h/mL
Clinical [8]; 1000 mg, 1000 mg BID oral, day 14, 0 to last measurable concentration
  AUC(0-t): 771 ng·h/mL
Clinical [8]; [13]
  Cmax: 21 ng/mL
  Tmax: 7.5 h
Clinical [8]; 1000 mg, 1000 mg BID oral, day 14, LC/MS/MS
  Cmax: 93.5 ng/mL
Clinical [8]; 1000 mg, 1000 mg BID oral, day 14 morning dose, LC/MS/MS
  Tmax: 1.8 h
[9]
  bioavailability after oral administration: very low
  intestinal absorption: < 1%
